In ChEMBL document CHEMBL4507299, “Data for DCP probe PF-04554878” (2021):

Key:
[1] = target: Ephrin type-B receptor 3 (Homo sapiens) (UniProt P54753)
[2] = system: Mast/stem cell growth factor receptor Kit (Homo sapiens), P10721 [D816H]
[3] = target: Macrophage colony-stimulating factor 1 receptor (Homo sapiens) (UniProt P07333)
[4] = target: Non-receptor tyrosine-protein kinase TNK1 (Homo sapiens) (UniProt Q13470)
[5] = target: Non-receptor tyrosine-protein kinase TYK2 (Homo sapiens) (UniProt P29597)
[6] = target: Mitogen-activated protein kinase kinase kinase 6 (Homo sapiens) (UniProt O95382)
[7] = target: Phosphatidylinositol 4-phosphate 5-kinase type-1 alpha (Homo sapiens) (UniProt Q99755)
[8] = target: Calcium/calmodulin-dependent protein kinase type 1D (Homo sapiens) (UniProt Q8IU85)
[9] = target: Homeodomain-interacting protein kinase 1 (Homo sapiens) (UniProt Q86Z02)
[10] = target: Ephrin type-A receptor 3 (Homo sapiens) (UniProt P29320)
[11] = target: Serine/threonine-protein kinase TBK1 (Homo sapiens) (UniProt Q9UHD2)
[12] = target: Cyclin-G-associated kinase (Homo sapiens) (UniProt O14976)
[13] = target: Membrane-associated tyrosine- and threonine-specific cdc2-inhibitory kinase (Homo sapiens) (UniProt Q99640)
[14] = target: Tyrosine-protein kinase Mer (Homo sapiens) (UniProt Q12866)
[15] = system: Hepatocyte growth factor receptor (Homo sapiens), P08581 [M1250T]
[16] = target: Cyclin-dependent kinase 16 (Homo sapiens) (UniProt Q00536)
[17] = target: Myosin-IIIa (Homo sapiens) (UniProt Q8NEV4)
[18] = target: Serine/threonine-protein kinase PAK 3 (Homo sapiens) (UniProt O75914)
[19] = target: Mitogen-activated protein kinase 12 (Homo sapiens) (UniProt P53778)
[20] = target: Transient receptor potential cation channel subfamily M member 6 (Homo sapiens) (UniProt Q9BX84)
[21] = target: Serine/threonine-protein kinase 32C (Homo sapiens) (UniProt Q86UX6)
[22] = target: Myotonin-protein kinase (Homo sapiens) (UniProt Q09013)
[23] = target: Mitogen-activated protein kinase kinase kinase 15 (Homo sapiens) (UniProt Q6ZN16)
[24] = target: Mitogen-activated protein kinase kinase kinase 12 (Homo sapiens) (UniProt Q12852)
[25] = target: Sigma non-opioid intracellular receptor 1 (Homo sapiens) (UniProt Q99720); conditions: Compound concentration 10.0 uM
[26] = target: Protein kinase C delta type (Homo sapiens) (UniProt Q05655)
[27] = target: Serine/threonine-protein kinase PAK 6 (Homo sapiens) (UniProt Q9NQU5)
[28] = target: Serine/threonine-protein kinase Nek11 (Homo sapiens) (UniProt Q8NG66)
[29] = target: Cyclin-dependent kinase 15 (Homo sapiens) (UniProt Q96Q40)
[30] = target: Serine/threonine-protein kinase 10 (Homo sapiens) (UniProt O94804)
[31] = target: Myosin-IIIb (Homo sapiens) (UniProt Q8WXR4)
[32] = target: Serine/threonine-protein kinase PLK3 (Homo sapiens) (UniProt Q9H4B4)
[33] = system: Phosphatidylinositol 4,5-bisphosphate 3-kinase catalytic subunit alpha isoform (Homo sapiens), P42336 [M1043I]
[34] = target: Aurora kinase C (Homo sapiens) (UniProt Q9UQB9)
[35] = system: Mast/stem cell growth factor receptor Kit (Homo sapiens), P10721 [A829P]
[36] = target: Insulin receptor-related protein (Homo sapiens) (UniProt P14616)
[37] = target: Serine/threonine-protein kinase Nek7 (Homo sapiens) (UniProt Q8TDX7)
[38] = target: Histamine H1 receptor (Homo sapiens) (UniProt P35367); conditions: Compound concentration 10.0 uM
[39] = target: Ephrin type-A receptor 6 (Homo sapiens) (UniProt Q9UF33)
[40] = target: Casein kinase II subunit alpha (Homo sapiens) (UniProt P68400)
[41] = target: Tyrosine-protein kinase ZAP-70 (Homo sapiens) (UniProt P43403)
[42] = target: MAP kinase-interacting serine/threonine-protein kinase 2 (Homo sapiens) (UniProt Q9HBH9)
[43] = target: Calcium/calmodulin-dependent protein kinase type II subunit gamma (Homo sapiens) (UniProt Q13555)
[44] = target: Serine/threonine-protein kinase B-raf (Homo sapiens) (UniProt P15056)
[45] = target: Phosphatidylinositol 4,5-bisphosphate 3-kinase catalytic subunit alpha isoform (Homo sapiens) (UniProt P42336)
[46] = Compound concentration 100.0 nM
[47] = Compound concentration 1000.0 nM

Chain of Aurora kinase C (Homo sapiens) (Q9UQB9 whole entry): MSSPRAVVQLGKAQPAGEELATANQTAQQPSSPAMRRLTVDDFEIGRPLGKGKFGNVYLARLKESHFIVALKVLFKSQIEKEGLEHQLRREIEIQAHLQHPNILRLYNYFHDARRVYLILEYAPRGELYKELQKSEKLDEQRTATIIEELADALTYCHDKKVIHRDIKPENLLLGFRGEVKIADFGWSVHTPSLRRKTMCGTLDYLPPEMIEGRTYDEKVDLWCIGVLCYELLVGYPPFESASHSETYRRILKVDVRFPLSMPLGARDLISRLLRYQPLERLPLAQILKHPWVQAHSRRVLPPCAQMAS
Chain of Myotonin-protein kinase (Homo sapiens) (Q09013 whole entry): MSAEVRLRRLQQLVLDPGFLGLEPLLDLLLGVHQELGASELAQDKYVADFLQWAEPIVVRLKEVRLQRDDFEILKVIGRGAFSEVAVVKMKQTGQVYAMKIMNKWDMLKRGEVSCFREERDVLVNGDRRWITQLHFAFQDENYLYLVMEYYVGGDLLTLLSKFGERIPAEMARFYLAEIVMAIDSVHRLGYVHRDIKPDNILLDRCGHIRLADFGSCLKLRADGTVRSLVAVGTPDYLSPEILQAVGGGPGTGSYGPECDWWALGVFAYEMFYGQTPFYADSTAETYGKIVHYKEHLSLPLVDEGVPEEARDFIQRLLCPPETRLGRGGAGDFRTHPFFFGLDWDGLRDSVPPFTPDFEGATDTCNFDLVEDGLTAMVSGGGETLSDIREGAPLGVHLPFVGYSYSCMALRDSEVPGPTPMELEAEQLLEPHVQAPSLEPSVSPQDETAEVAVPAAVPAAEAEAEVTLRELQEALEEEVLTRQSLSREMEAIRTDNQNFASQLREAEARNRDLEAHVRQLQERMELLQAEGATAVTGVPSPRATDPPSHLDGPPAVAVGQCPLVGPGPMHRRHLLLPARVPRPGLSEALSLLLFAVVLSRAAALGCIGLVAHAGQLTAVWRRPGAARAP
Chain of Myosin-IIIb (Homo sapiens) (Q8WXR4 whole entry): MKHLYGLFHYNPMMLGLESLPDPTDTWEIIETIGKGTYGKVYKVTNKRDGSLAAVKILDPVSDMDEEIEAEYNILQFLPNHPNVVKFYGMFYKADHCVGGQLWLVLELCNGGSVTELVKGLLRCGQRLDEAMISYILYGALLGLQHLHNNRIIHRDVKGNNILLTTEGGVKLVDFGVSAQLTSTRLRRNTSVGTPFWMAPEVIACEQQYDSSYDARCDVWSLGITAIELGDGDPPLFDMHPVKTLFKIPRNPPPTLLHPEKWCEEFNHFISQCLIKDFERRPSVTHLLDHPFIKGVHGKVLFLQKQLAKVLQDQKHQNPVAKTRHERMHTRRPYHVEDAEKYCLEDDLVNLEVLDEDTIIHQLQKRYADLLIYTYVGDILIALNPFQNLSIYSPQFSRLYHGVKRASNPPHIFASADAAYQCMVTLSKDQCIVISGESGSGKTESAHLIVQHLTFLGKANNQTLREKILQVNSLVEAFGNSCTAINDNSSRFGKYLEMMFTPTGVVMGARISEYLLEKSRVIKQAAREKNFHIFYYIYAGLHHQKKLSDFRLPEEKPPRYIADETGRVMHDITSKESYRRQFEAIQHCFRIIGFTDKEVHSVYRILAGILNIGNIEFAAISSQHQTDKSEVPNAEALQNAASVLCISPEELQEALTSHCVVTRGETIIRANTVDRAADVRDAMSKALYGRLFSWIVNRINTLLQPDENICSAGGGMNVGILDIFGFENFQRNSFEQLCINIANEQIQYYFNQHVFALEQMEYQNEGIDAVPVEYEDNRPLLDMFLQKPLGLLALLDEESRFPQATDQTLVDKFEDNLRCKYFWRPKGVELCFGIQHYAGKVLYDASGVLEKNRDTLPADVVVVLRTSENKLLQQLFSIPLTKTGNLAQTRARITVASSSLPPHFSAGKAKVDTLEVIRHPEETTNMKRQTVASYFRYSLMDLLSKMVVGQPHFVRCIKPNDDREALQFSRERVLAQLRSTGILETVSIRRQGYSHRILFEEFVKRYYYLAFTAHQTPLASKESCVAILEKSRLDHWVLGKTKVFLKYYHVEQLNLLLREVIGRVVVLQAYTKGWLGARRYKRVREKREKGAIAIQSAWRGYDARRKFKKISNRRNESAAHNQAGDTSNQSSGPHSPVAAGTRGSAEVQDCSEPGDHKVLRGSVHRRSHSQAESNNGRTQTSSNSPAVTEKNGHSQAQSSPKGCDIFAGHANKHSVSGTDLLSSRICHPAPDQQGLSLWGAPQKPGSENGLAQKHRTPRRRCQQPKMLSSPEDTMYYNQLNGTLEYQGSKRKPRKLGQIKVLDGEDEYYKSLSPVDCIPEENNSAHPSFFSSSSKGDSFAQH
Chain of Serine/threonine-protein kinase Nek7 (Homo sapiens) (Q8TDX7 whole entry, looked up): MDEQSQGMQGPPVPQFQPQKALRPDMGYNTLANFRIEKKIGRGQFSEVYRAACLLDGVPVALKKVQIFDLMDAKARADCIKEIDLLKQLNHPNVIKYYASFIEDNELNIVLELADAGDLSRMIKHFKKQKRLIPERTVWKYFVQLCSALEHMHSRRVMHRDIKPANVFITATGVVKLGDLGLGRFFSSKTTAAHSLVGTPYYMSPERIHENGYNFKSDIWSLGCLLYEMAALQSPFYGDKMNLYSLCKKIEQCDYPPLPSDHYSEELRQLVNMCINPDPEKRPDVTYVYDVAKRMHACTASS
Chain of Serine/threonine-protein kinase PAK 6 (Homo sapiens) (Q9NQU5 whole entry, looked up): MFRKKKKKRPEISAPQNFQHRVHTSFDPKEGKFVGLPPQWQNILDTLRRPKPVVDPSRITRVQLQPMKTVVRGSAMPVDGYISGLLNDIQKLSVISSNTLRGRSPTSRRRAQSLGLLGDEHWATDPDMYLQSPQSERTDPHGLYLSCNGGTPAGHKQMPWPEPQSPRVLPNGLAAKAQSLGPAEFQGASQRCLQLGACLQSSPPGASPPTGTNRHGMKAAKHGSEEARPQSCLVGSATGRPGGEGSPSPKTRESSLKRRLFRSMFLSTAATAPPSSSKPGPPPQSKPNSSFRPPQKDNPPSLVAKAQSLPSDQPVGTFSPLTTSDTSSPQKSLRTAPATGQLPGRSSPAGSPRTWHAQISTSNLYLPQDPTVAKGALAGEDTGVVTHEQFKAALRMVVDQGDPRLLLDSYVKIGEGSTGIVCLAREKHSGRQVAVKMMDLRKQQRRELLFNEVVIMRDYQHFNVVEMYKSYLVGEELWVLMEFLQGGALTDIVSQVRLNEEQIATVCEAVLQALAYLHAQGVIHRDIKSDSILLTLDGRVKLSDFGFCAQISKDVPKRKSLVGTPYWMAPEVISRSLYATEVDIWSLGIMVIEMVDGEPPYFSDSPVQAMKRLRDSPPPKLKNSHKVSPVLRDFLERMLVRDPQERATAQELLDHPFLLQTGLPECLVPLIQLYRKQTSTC
Chain of Cyclin-G-associated kinase (Homo sapiens) (O14976 whole entry): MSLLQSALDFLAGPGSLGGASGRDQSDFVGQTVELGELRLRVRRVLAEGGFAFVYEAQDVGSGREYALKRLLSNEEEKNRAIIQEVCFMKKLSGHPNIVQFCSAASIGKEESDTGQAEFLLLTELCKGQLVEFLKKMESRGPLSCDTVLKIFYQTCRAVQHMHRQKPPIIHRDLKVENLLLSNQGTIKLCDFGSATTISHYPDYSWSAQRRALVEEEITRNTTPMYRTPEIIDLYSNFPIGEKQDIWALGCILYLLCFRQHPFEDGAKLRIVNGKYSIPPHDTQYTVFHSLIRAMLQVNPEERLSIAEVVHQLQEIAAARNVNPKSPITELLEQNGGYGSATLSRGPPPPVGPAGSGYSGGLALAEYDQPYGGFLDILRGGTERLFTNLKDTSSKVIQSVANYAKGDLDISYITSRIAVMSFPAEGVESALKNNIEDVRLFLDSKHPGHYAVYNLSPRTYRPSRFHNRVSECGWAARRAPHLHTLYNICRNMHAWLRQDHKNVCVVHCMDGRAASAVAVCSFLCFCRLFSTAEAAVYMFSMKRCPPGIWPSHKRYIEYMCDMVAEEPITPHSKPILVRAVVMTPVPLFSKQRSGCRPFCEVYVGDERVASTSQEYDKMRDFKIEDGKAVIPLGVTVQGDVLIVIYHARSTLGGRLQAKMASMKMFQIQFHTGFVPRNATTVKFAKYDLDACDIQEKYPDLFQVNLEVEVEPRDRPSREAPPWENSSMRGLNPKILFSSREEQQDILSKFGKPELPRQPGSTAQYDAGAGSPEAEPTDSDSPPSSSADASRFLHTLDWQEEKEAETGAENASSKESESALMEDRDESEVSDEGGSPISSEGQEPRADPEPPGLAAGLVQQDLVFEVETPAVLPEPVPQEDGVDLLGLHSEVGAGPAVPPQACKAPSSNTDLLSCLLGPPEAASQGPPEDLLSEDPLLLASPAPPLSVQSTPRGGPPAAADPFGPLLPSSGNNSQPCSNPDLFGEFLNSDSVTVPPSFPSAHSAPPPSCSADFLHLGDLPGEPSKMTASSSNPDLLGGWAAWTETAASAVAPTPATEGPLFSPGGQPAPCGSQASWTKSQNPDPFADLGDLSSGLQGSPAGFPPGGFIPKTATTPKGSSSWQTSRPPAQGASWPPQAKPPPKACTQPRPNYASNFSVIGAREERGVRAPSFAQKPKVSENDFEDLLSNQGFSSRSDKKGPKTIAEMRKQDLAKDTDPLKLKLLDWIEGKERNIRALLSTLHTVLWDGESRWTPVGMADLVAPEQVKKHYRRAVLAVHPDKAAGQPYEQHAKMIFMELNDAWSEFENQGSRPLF
Chain of Histamine H1 receptor (Homo sapiens) (P35367 whole entry): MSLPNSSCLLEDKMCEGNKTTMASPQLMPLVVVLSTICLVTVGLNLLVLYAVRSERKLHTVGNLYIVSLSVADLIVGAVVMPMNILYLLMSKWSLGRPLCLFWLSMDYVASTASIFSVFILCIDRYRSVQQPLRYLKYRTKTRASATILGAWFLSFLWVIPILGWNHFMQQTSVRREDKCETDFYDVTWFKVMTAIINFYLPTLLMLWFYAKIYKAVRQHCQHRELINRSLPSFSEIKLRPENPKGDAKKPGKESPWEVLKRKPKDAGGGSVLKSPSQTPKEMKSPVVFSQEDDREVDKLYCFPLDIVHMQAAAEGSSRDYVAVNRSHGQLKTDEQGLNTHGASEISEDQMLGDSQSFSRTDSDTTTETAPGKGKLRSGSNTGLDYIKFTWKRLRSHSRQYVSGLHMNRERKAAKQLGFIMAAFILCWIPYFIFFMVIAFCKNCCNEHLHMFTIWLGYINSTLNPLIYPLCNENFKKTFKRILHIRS

CNC(=O)c1ccc(Nc2ncc(C(F)(F)F)c(NCc3nccnc3N(C)S(C)(=O)=O)n2)cc1 [DEFACTINIB]
residual activity [1, 46]: 87%
residual activity [2, 46]: 71%
residual activity [3, 46]: 76%
residual activity [4, 46]: 100%
residual activity [5, 46]: 27%
residual activity [6, 46]: 90%
residual activity [7, 46]: 98%
residual activity [8, 46]: 100%
residual activity [9, 46]: 27%
residual activity [10, 46]: 82%
residual activity [11, 46]: 75%
residual activity [12, 46]: 69%
residual activity [13, 46]: 94%
residual activity [14, 46]: 54%
residual activity [15, 46]: 63%
residual activity [16, 46]: 99%
residual activity [17, 46]: 100%
residual activity [18, 46]: 100%
residual activity [19, 46]: 67%
residual activity [20, 46]: 98%
residual activity [21, 46]: 100%
residual activity [22, 46]: 16%
residual activity [23, 46]: 95%
residual activity [24, 46]: 83%
inhibition [25]: 40.1%
residual activity [26, 46]: 100%
residual activity [27, 46]: 100%
residual activity [28, 46]: 89%
residual activity [29, 46]: 67%
residual activity [30, 46]: 77%
residual activity [31, 46]: 100%
residual activity [32, 46]: 91%
residual activity [33, 46]: 100%
residual activity [34, 46]: 47%
residual activity [35, 46]: 85%
residual activity [36, 46]: 95%
residual activity [37, 46]: 70%
inhibition [38]: -3.38%
residual activity [39, 46]: 85%
residual activity [40, 46]: 61%
residual activity [41, 46]: 100%
residual activity [42, 46]: 100%
residual activity [43, 46]: 79%
residual activity [44, 46]: 100%
residual activity [45, 46]: 100%

CN(c1ccnc(CNc2nc(Nc3ccc4c(c3)CC(=O)N4)ncc2C(F)(F)F)n1)S(C)(=O)=O [PF-00911705]
residual activity [1, 47]: 95%
residual activity [2, 47]: 44%
residual activity [3, 47]: 100%
residual activity [4, 47]: 65%
residual activity [5, 47]: 27%
residual activity [6, 47]: 73%
residual activity [7, 47]: 12%
residual activity [8, 47]: 79%
residual activity [9, 47]: 45%
residual activity [10, 47]: 72%
residual activity [11, 47]: 21%
residual activity [12, 47]: 66%
residual activity [13, 47]: 100%
residual activity [14, 47]: 21%
residual activity [15, 47]: 6.8%
residual activity [16, 47]: 82%
residual activity [17, 47]: 100%
residual activity [18, 47]: 88%
residual activity [19, 47]: 58%
residual activity [20, 47]: 86%
residual activity [21, 47]: 76%
residual activity [22, 47]: 23%
residual activity [23, 47]: 92%
residual activity [24, 47]: 48%
inhibition [25]: 23.1%
residual activity [26, 47]: 78%
residual activity [27, 47]: 71%
residual activity [28, 47]: 100%
residual activity [29, 47]: 63%
residual activity [30, 47]: 100%
residual activity [31, 47]: 68%
residual activity [32, 47]: 1.7%
residual activity [33, 47]: 95%
residual activity [34, 47]: 14%
residual activity [35, 47]: 46%
residual activity [36, 47]: 100%
residual activity [37, 47]: 68%
inhibition [38]: 21.4%
residual activity [39, 47]: 85%
residual activity [40, 47]: 26%
residual activity [41, 47]: 61%
residual activity [42, 47]: 91%
residual activity [43, 47]: 100%
residual activity [44, 47]: 82%
residual activity [45, 47]: 100%
